Experimental findings from patent publication US20200333357A1, “NOVEL TFEB PATHWAY AGONISTS FOR METABOLIC DISEASES AND AGEING” (The Board of Regents of the University of Texas System, priority 2017, published 2020) are described below.

Counter-ions that a name gives are not always drawn.

The subject of test [1] is C57BL/6J mice fed a high-fat diet. The experiment in a line: High-fat diet mouse model for in vivo compound delivery. As to conditions: for known TFEB target genes mRNA in liver and muscle: HFD mice treated with AD or IKA (PEG-PLA nanoparticles i.v.); for high fat diet-induced steatosis (liver histology): 3 weeks, DG oral, AD and IKA i.v. in PEG-PLA nanoparticles; for body weight/composition and blood chemistry: AD 1 mg kg-1 or IKA 0.5 mg kg-1 in PEG-PLA nanoparticles i.v.; for expression of Ppargc1α, Ppar1α and Fgf21: liver. As for the experimental part:
Total RNA was isolated from MEFs or mouse tissues using RNeasy minipreps (QIAGEN). Complementary DNA (cDNA) was synthesized with the High capacity RNA-to-cDNA kit (Applied biosystems), and qRT-PCR was performed using TaqMan® Gene Expression Assays (Applied biosystems) for the indicated genes on the LightCycler System (Roche Applied Science). Gapdh was used to normalize RNA input. The mouse probes used in this study were: Tfeb (Mm00448968_m1), Ctsa (Mm00447197_m1), Mcoln 1 (Mm00522550_m1), Ppara (Mm00440939_m1), Ppargc1a (Mm01208835_m1), Fgf21 (Mm00840165_g1) and Gapdh (Mm99999915_g1), and the human probes used were TFEB (Hs00292981_m1), CTSA (Hs00264902_m1), MCOLN1 (Hs01100653_m1), PPARGC1A (Hs00173304_m1), PPARA (Hs00947536_m1), UVRAG (Hs01075434_m1), GAPDH (Hs02758991_g1) and p62/SQSTM1 (Hs01061917_g1). All probes were from Thermo Fisher Scientific Inc.
All mouse experiments were approved and carried out following the ethical guidelines established by the Institutional Animal Care and Use Committee at UT Southwestern Medical Center. The investigators were not blinded to allocation during experiments and outcome assessment. Four to six weeks old male C57BL/6J mice were randomly divided into groups fed a regular diet (Harlan Teklad) or a high-fat diet (HFD) containing 60% fat (Research Diets). After one month, the HFD mice were grouped so that the average body weights of mice in each group were similar. The grouped mice were orally administered DG (2.5 mg kg-1) or its solvent 50% HPβCD solution, or intravenously injected with AD (1 mg kg-1) or IKA (0.5 mg kg-1) encapsulated in the PEG-PLA nanoparticles or empty nanoparticles, three times a week for three weeks. Body weight and food intake were measured twice a week before treatment and every day after treatment in the middle of the light period. The cage tops containing food pellets were weighed, as well as the spilled food in the bottom of the cage. The food intake was corrected for spillage.
At the end of the treatment, the body composition of each mouse was analyzed by EchoMRI (Echo Medical Systems LLC) according to the manufacturer's instructions.
For glucose tolerance tests, the mice were orally administered 1 mg g-1 glucose (Sigma-Aldrich) after a 4 hr fast. For insulin tolerance tests, the mice were intraperitoneally injected with 0.75 milliunit g-1 insulin (Humulin R, Eli Lily) after a 4 hr fast. Blood was drawn from tail veins at indicated time points after injection. Experiments were performed during light period. Serum glucose levels were analyzed using commercial glucose reagents (Sigma).
At the end of the treatment, blood was collected from the orbital plexus under anesthesia. Serum was frozen in aliquots and stored at −20° C. for further analysis. Specific enzyme kits were used to detect serum levels of triglyceride (Fisher Scientific), cholesterol (Fisher Scientific) and glucose (Sigma-Aldrich).
Livers and other organs were dissected and embedded in OCT. Cryostat sections were cut at 10 μm. The sections were stored at −80° C. and subjected to haematoxylin/eosin and oil red O staining following standard protocol. The immunohistochemistry (IHC) staining of p62 was performed following the protocol of Cell Signaling Technology. The primary antibody was from Abcam, and the SignalStain® boost IHC detection reagent and DAB substrate kit were from Cell Signaling Technology. All the sections were imaged using a NanoZoomer 2.0-HT Digital slide scanner (Hamamatzu) and processed using NDP viewer software.

For the next test, the system named is HeLa cells. The experiment in a line: Fura-2 Ca2+ imaging. Conditions: exposure at ~TFEB EC90. The format is cell-based, human. As for the experimental part: HeLa cells treated with compounds or DMSO for 4 hr were loaded with Fura-2-AM (3 μM) in cell culture medium for 60 min at 37° C. Cells were washed twice then incubated in fresh medium for 30 min to allow complete de-esterification of intracellular AM esters. Imaging was performed at 37° C. with 5% CO2 on an epifluorescent microscope (Deltavision, Applied Precision) equipped with a digital monochrome Coolsnap HQ2 camera (Roper Scientific, Tucson, Ariz.). Fluorescence images were collected using SoftWoRx v3.4.5 (Universal Imaging, Downingtown, Pa.). Data were recorded at excitation/emission wavelengths of 340/510 nm (Fura-340 filter) and 387/510 nm (Fura-380 filter). The single band pass excitation filter for Fura-340 and Fura-380 is 26 nm and 11 nm, respectively, and the band pass of emission filters for Fura-340 and Fura-380 is 84 nm. Intracellular calibration of Fura-2 was accomplished by manipulating the Ca^2+ levels inside cells using the ionphore ionomycin (20 μM, Sigma-Aldrich) and by incubating cells in buffers with various Ca^2+ concentrations (calcium calibration buffer kit—Invitrogen). Intracellular fluorescence ratios were determined using ImageJ software. Images were background-corrected by subtracting the mean pixel values of a cell-free region near the region of interest. Fluorescent intensity ratio R=F340/F380, and Ca^2+ concentration can be calculated from Equation 3, where Kd can be obtained from intracellular calibration:
[Ca^2+]Kd×F380,min/F380,max×(R−Rmin)/(Rmax−R) (3)

The subject of a further test is AMPK. The experiment in a line: AMPK and ACC phosphorylation immunoblots. The test is classed as cell-based, human. As to conditions: HeLa cells, dose-dependent. As for the experimental part: SFIGS. […] (SFIG. 4B) Representative images of GFP-TFEB HeLa cells treated with 3.3 μM AD or in combination with 5 μM FK506, 10 μM CsA or both. […] Scale bar, 20 μm. […] Scale bar, 20 μm. […] Scale bar, 20 μm. (SFIGS. 4F-G) Immunoblots of wide-type HeLa cells treated with various doses (starting from 3.3 μM with a 3-fold dilution, and right-most lane is DMSO) of AD and IKA.

Where [2] appears, read: HFD mice, three times a week for three weeks.
Setting [3] is: HFD mice, DG 2.5 mg kg-1 oral, three times a week for three weeks.

As to `CCCCC(CC)CNC(=N)NC(=N)NCCCCCCNC(=N)NC(=N)NCC(CC)CCCC` (stereo not shown) [AD, alexidine dihydrochloride], in test [1], the “known TFEB target genes mRNA in liver and muscle” value is recorded as “upregulated in the liver rather than in the muscle”. In test [1] (HFD mice), the “high fat diet-induced steatosis (liver histology)” value is recorded as “amelioration”; the “expression of Ppargc1α, Ppar1α and Fgf21” value is “upregulation”. The “body weight/composition and blood chemistry” value in test [1] (setting [2]) is given as “significant normalization”. The “cytosolic calcium (Fura-2)” value with HeLa cells is reported as “induce accumulation of cytosolic calcium”. Further, the “activating phosphorylation of AMPK and its substrate ACC” value (“activating phosphorylation” for short) with AMPK is listed as “induced activating phosphorylation”.

`CC[C@H]1[C@@H]2C=C[C@@H]3[C@H]4C/C=C\C(=O)NCCC[C@@H]5NC(=O)/C(=C(O)/C=C/[C@@H]4C[C@@H]3[C@H]2C[C@H]1C)C5=O` [IKA, ikarugamycin]: the “known TFEB target genes mRNA in liver and muscle” value in test [1] was “upregulated in the liver rather than in the muscle”. Moreover, in test [1] (HFD mice), the “high fat diet-induced steatosis (liver histology)” value is “amelioration”; the “expression of Ppargc1α, Ppar1α and Fgf21” value is recorded as “upregulation”. Moreover, the “body weight/composition and blood chemistry” value in test [1] (setting [2]) is reported as “significant normalization”. Also, the “cytosolic calcium (Fura-2)” value in the test on HeLa cells is reported as “induce accumulation of cytosolic calcium”. The “activating phosphorylation” value in the test with AMPK is “induced activating phosphorylation”.

Turning to `C[C@H]1O[C@@H](O[C@H]2[C@@H](O)C[C@H](O[C@H]3[C@@H](O)C[C@H](O[C@H]4CC[C@@]5(C)[C@H](CC[C@@H]6[C@@H]5C[C@@H](O)[C@]5(C)[C@@H](C7=CC(=O)OC7)CC[C@]65O)C4)O[C@@H]3C)O[C@@H]2C)C[C@H](O)[C@@H]1O` [DG, digoxin, reference compound], in test [1] (HFD mice), the “high fat diet-induced steatosis (liver histology)” value is reported as “amelioration”; the “expression of Ppargc1α, Ppar1α and Fgf21” value was “upregulation”. In addition, in test [1] (setting [3]), the body composition result is listed as “normalized”, the body weight entry was “normalized”, the circulating cholesterol entry was “normalized” and the circulating glucose result is reported as “normalized”. Besides, in test [1] (setting [3]), the circulating insulin levels result is “normalized” and the circulating triglycerides result is reported as “normalized”. For the same molecule, in the test on HeLa cells, the “cytosolic calcium (Fura-2)” value is reported as “induce accumulation of cytosolic calcium”. Also, the “activating phosphorylation” value in the test on AMPK was “not”.
